Test results published in patent US10519159B2, “Antiviral aliphatic ester prodrugs of tenofovir” (Merck Sharp & Dohme Corp., priority 2016, dated 2019).
pIC50: −log10 of the molar value. Like-named read-outs stand apart in the source and are kept apart here.

Columns and labels:
[1] = Prodrug stability assay in bio-relevant media (FaSSIF with pancreatin), GI tract stability; type: in vitro ADME
Protocol: Prodrug Stability Assay in Bio-Relevant Media
The following assay was employed to evaluate the stability of the prodrugs in simulated gastrointestinal tract conditions. Preparation of fasted state simulated intestinal fluid (FaSSIF) using Phares SIF Powder was carried out according to protocols from Phare Drug Delivery AG (Baselland, Switzerland). For sample preparation, 10 μL stock solutions (10 mM) of prodrug substance in DMSO was added to 990 μL of 0.5 mg/mL Pancreatin solution (Fisher CAS #8049-47-6) in FaSSIF. Two samples were prepared for each compound. If the sample was a clear solution, it was directly analyzed by HPLC. If the sample was not clear, the sample was […], maintained at 37° C. and observed 5 h later. If the sample was clear, HPLC analysis was directly performed. If the sample was still not clear, the sample was diluted with 100% ACN and assayed by HPLC. All the samples were vortexed for 3 min and observed before injection. For the diluted samples, the area is multiplied by a dilution factor when the data is analyzed. The analysis was carried out with an Agilent 1100 series HPLC with autosampler. The column was a Poroshell 120 EC-C18, 4.6×50 mm, 2.7 μm. The flow rate was 1.8 mL/min, and the injection volume was 5 or 10 μL. UV detection was in the range 210-400 nm. The mobile phase consisted of solvent A (water plus 10 mM tetrabutylammonium bromide) and solvent B (acetonitrile) with a gradient of: 90% solvent A at 0 min, changing to 95% solvent B over 6 min, maintaining for 1.5 min, then reverting to 90% solvent A over 1.6 min. The HPLC peak area of the prodrug at 5 h was divided by the HPLC peak area of the prodrug at 0 h, to generate the % claimed parent ratio, which is summarized in Table 1 for gastrointestinal (GI) Tract stability.

HIV-1 (H9/IIIB strain) = experiment: Multiple round HIV-1 infection assay (Viking assay) in MT4-GFP cells; type: cell-based
Protocol: Assessing Antiviral Potency in a Multiple Round HIV-1 Infection Assay (Viking Assay)
The antiviral activity of the tenofovir prodrugs of the Examples herein was assessed in an assay that measures the rate of replication of HIV in cell culture, termed the Viking assay (Viral KINetics in Green cells) and performed as follows. HIV-1 replication was monitored using MT4-gag-GFP clone D3 (hereafter designated MT4-GFP), which are MT-4 cells modified to harbor a GFP reporter gene, the expression of which is dependent on the HIV-1 expressed proteins tat and rev. Productive infection of an MT4-GFP cell with HIV-1 results in GFP expression approximately 24 h post-infection. MT4-GFP cells were maintained at 37° C./5% CO2/90% relative humidity in RPMI 1640 supplemented with 10% fetal bovine serum, 100 U/ml penicillin/streptomycin, and 400 μg/ml G418 to maintain the reporter gene. For infections, MT4-GFP cells were placed in the same medium lacking G418 and infected overnight with HIV-1 (H9/IIIB strain) virus at an approximate multiplicity of infection of 0.01 in the same incubation conditions. Cells were then washed and re-suspended in either RPMI 1640 supplemented with 10% or 50% normal human serum (NHS) at 1.6×10^5 cells/mL (10% NHS or 50% NHS, respectively). Compound plates were prepared by dispensing compounds dissolved in DMSO into wells of 384 well poly-D-lysine-coated plates (0.2 μl/well) using an ECHO acoustic dispenser. Each compound was tested in a 10-point serial 3-fold dilution (typical final concentrations: 8.4 μM-0.42 nM). Controls included no inhibitor (DMSO only) and a combination of three antiviral agents (efavirenz, indinavir, an in-house integrase strand transfer inhibitor at final concentrations of 4 μM each). Cells were added (50 μL/well) to compound plates and the infected cells were maintained at 37° C./5% CO2/90% relative humidity.
Infected cells were quantified at two time points, ˜48 h and ˜72 h post-infection, by counting the number of green cells in each well using an Acumen eX3 scanner. The increase in the number of green cells over ˜24 h period gives the reproductive ratio, R0, which is typically 5-15 and has been shown experimentally to be in logarithmic phase (data not shown). Inhibition of R0 is calculated for each well, and IC50s determined by non-linear 4-parameter curve fitting.

[2] = Table 1, % parent: HPLC peak area of prodrug at 5 h / 0 h, 0.5 mg/mL pancreatin in FaSSIF, 37° C.
[3] = Table 1, MT4-GFP cells infected with HIV-1 H9/IIIB, 10% normal human serum, read-out: Viking, IC50 (10% NHS)
[4] = Table 1, MT4-GFP cells infected with HIV-1 H9/IIIB, 50% normal human serum, read-out: Viking, IC50 (50% NHS)

SMILES	GI Tract stability [1, 2]	pIC50 (HIV-1 (H9/IIIB strain); [3])	pIC50 (HIV-1 (H9/IIIB strain); [4])	further results
CCCOC(=O)C(C)(C)N[P@](=O)(CO[C@H](C)Cn1cnc2c(N)ncnc21)OCc1ccc(F)cc1C(=O)OC(C)C (single isomer, unassigned) [Example 7B]	95.0%	–	–	pIC50 (HIV-1 (H9/IIIB strain); Human immunodeficiency virus 1, IIIB, Table 1, MT4-GFP cells infected with HIV-1 H9/IIIB, 10% normal human serum, read-out: Viking, IC50 (10% NHS)): 8.97; pIC50 (HIV-1 (H9/IIIB strain); Human immunodeficiency virus 1, IIIB, Table 1, MT4-GFP cells infected with HIV-1 H9/IIIB, 50% normal human serum, read-out: Viking, IC50 (50% NHS)): 8.26
CC(C)OC(=O)C(C)(C)COP(=O)(CO[C@H](C)Cn1cnc2c(N)ncnc21)NC(C)(C)C(=O)OC(C)C (single isomer, unassigned) [Example 9B]	98.18%	8.08	7.58	–
CCCCCOC(=O)C(C)(C)NP(=O)(CO[C@H](C)Cn1cnc2c(N)ncnc21)OCCC(=O)OC(C)C (single isomer, unassigned) [Example 8B]	99.59%	8.12	7.30	–
CCCOC(=O)[C@H](C)NP(=O)(CO[C@H](C)Cn1cnc2c(N)ncnc21)OCc1ccc(F)cc1C(=O)OC(C)C (single isomer, unassigned) [Compound 17A, reference compound]	–	–	–	GI Tract stability ([1]; Table 2, L-Ala comparison compounds, % parent at 5 h vs 0 h, pancreatin in FaSSIF): 20.3%; pIC50 (HIV-1 (H9/IIIB strain); Human immunodeficiency virus 1, IIIB, Table 2, L-Ala comparison compounds, MT4-GFP cells, HIV-1 H9/IIIB, 10% normal human serum, read-out: Viking, IC50 (10% NHS)): 7.46; pIC50 (HIV-1 (H9/IIIB strain); Human immunodeficiency virus 1, IIIB, Table 2, L-Ala comparison compounds, MT4-GFP cells, HIV-1 H9/IIIB, 50% normal human serum, read-out: Viking, IC50 (50% NHS)): 5.65
CCCOC(=O)C(C)(C)NP(=O)(CO[C@H](C)Cn1cnc2c(N)ncnc21)SCCC(=O)OC(C)C (single isomer, unassigned) [Example 12A]	96.69%	–	–	pIC50 (HIV-1 (H9/IIIB strain); read-out: Viking, IC50 (10% NHS), Table 1, MT4-GFP cells infected with HIV-1 H9/IIIB, 10% normal human serum): 7.12; pIC50 (HIV-1 (H9/IIIB strain); read-out: Viking, IC50 (50% NHS), Table 1, MT4-GFP cells infected with HIV-1 H9/IIIB, 50% normal human serum): 6.49
CCCOC(=O)C(C)(C)NP(=O)(CO[C@H](C)Cn1cnc2c(N)ncnc21)OCCC(=O)OC(C)C (single isomer, unassigned) [Example 1B]	99.35%	8.29	7.86	–
CC(C)OC(=O)CCOP(=O)(CO[C@H](C)Cn1cnc2c(N)ncnc21)NC(C)(C)C(=O)OC(C)C (single isomer, unassigned) [Example 2A]	100.30%	7.65	7.16	–
